According to patent US20220279826A1, “OFF-FLAVOR SUPPRESSING AGENT” (AJINOMOTO CO., INC., priority 2019, published 2022):

Experiments:
[1] = Sensory evaluation in pea protein aqueous solution (Experimental Example 8); settings: text summary of Table 22
Procedure: Each compound shown in the following Table 22 was added to an aqueous solution prepared by dissolving powdered pea protein (6 parts by weight) and granulated sugar (4 parts by weight) in ion exchange water (90 parts by weight) (hereinafter at times referred to as pea protein aqueous solution) so as to achieve the concentration (addition concentration) shown in the following Table 22 to prepare each evaluation sample. Here, the powdered pea protein manufactured by Cosucra was used.
(§1) Based on the following evaluation criteria, a panel of four experts determined by consensus the intensity of off-tastes (bitter taste, harsh taste, astringent taste) derived from pea protein in each evaluation sample, by comparison with a pea protein aqueous solution without addition of any compound (negative control).

[2] = Sensory evaluation in 0.06 wt % acesulfame potassium aqueous solution (Experimental Example 10); settings: summary of Table 24
Procedure: (§2) Each compound shown in the following Table 24 was added to a 0.06 wt % acesulfame potassium aqueous solution (an aqueous solution prepared by dissolving acesulfame potassium (0.06 parts by weight) in water (99.94 parts by weight)) so as to achieve the concentration (addition concentration) shown in the following Table 24 to prepare each evaluation sample.
as §1, with “(bitter” for “(bitter taste, harsh taste, astringent”, “from acesulfame potassium” for “from pea protein”, “a 0.06 wt % acesulfame potassium” for “a pea protein”

[3] = Sensory evaluation in 0.007 wt % sucralose aqueous solution (Experimental Example 11); settings: Table 25
Procedure: as §2, with “25” for “24”, “0.007” for “0.06”, “sucralose” for “acesulfame potassium”, “sucralose (0.007” for “acesulfame potassium (0.06”, “(99.993” for “(99.94”
as §1, with “of three” for “of four”, “taste, metallic” for “taste, astringent”, “from sucralose” for “from pea protein”, “a 0.007 wt % sucralose” for “a pea protein”

[4] = Sensory evaluation in soy protein hamburg steak (Experimental Example 17); settings: Table 32
Procedure: Of the materials shown in the following Table 31, the materials of category 1 were first mixed, and the materials of category 2 were further mixed. The obtained mixture was formed into a circular shape of about 100 g per piece, and then baked at 180° C. for 2 minutes and 30 seconds for each of the front and back sides on an iron plate to produce a soy protein hamburg steak. Here, the granular soy protein manufactured by FUJI OIL CO., LTD. was used.
Each compound shown in the following Table 32 was added to soy protein hamburg steak so as to achieve the concentration (addition concentration) shown in the following Table 32 to prepare each evaluation sample.
as §1, with “five” for “four”, “soy” for “pea”, “soy” for “a pea”, “hamburg steak” for “aqueous solution”

[5] = Sensory evaluation in sodium acetate aqueous solution (Experimental Example 18); settings: Table 33
Procedure: Each compound shown in the following Table 33 was added to an aqueous solution prepared by dissolving sodium acetate (1 part by weight) and acetic acid (0.3 parts by weight) in water (98.7 parts by weight) (hereinafter at times referred to as sodium acetate aqueous solution) so as to achieve the concentration (addition concentration) shown in the following Table 33 to prepare each evaluation sample.
as §1, with “sodium acetate” for “pea protein”

[6] = Sensory evaluation in 1.5 wt % disodium phosphate aqueous solution (Experimental Example 19); settings: Table 34
Procedure: Each compound shown in the following Table 34 was added to a 1.5 wt % disodium phosphate aqueous solution (aqueous solution prepared by dissolving disodium phosphate (1.5 parts by weight) in water (98.5 parts by weight)) so as to achieve the concentration (addition concentration) shown in the following Table 34 to prepare each evaluation sample.
as §1, with “from disodium phosphate” for “from pea protein”, “a 1.5 wt % disodium phosphate” for “a pea protein”

[7] = Sensory evaluation in chicken broth solution with potassium chloride (Experimental Example 3); settings: chicken broth solution with 0.8 wt % potassium chloride
Procedure: As shown in the following (1) to (3) below, 0.8 wt % of potassium chloride was added to a food base powder corresponding to 0.5 wt % of sodium chloride to prepare each base solution having an off-taste derived from potassium chloride.
Potassium chloride (0.8 g) was added to a commercially available powdered chicken broth mix (manufactured by Ajinomoto Co., Inc., trade name “Marutorigara Soup”) (1.0 g), hot water (98.2 g) was added to dissolve the mixture to prepare a base solution (chicken broth soup solution).
Each compound shown in the following Tables 15 to 17 was added to each base solution (ramen noodle soup solution, chicken broth solution, potage solution) so as to achieve the concentration (addition concentration) shown in the following Tables 15 to 17 to prepare each evaluation sample.
By a method similar to that in Experimental Example 1, a panel of two experts determined the intensity of off-tastes (bitter taste, metallic taste, harsh taste, astringent taste) derived from potassium chloride in each evaluation sample.

[8] = Sensory evaluation in BCAA sweetness aqueous solution (Experimental Example 6); design: key to off-taste suppressing effect: ±: no change from negative control; −: slightly suppressed compared to negative control; −−: suppressed compared to negative control (same level of intensity as BCAA sweetness aqueous solution in which total concentration of leucine, isoleucine, and valine (weight ratio=2:1:1) exceeds 0.8 wt % and is not more than 0.9 wt %); −−−: considerably suppressed compared to negative control (same level of intensity as BCAA sweetness aqueous solution in which total concentration of leucine, isoleucine, and valine (weight ratio=2:1:1) is not more than 0.8 wt %); settings: for intensity of off-tastes (bitter taste, harsh taste) derived from amino acid (branched chain amino acid): summary of Table 20
Procedure: Each compound shown in the following Table 20 was added to an aqueous solution prepared by dissolving leucine (0.50 parts by weight), isoleucine (0.25 parts by weight), valine (0.25 parts by weight), and granulated sugar (4 parts by weight) in ion exchange water (95 parts by weight) (hereinafter at times referred to as BCAA sweetness aqueous solution) so as to achieve the concentration (addition concentration) shown in the following Table 20 to prepare each evaluation sample.
as §1, with “harsh” for “harsh taste, astringent”, “from amino acid” for “from pea protein”, “a BCAA sweetness” for “a pea protein”

[9] = addition concentration 10 weight ppb (1 weight ppm with respect to amino acid)
[10] = addition concentration 50 weight ppb (5 weight ppm with respect to amino acid)
[11] = addition concentration 100 weight ppb (10 weight ppm with respect to amino acid)
[12] = addition concentration 10 ppb (1.25 weight ppm with respect to potassium chloride)
[13] = addition concentration 1 weight ppb (0.1 weight ppm with respect to amino acid)

Row | Structure (SMILES) | intensity of off-tastes (bitter taste, harsh taste, astringent taste) derived from pea protein [1] | intensity of off-tastes (bitter taste) derived from acesulfame potassium [2] | intensity of off-tastes (bitter taste, harsh taste, metallic taste) derived from sucralose [3] | intensity of off-tastes (bitter taste, harsh taste, astringent taste) derived from soy protein [4] | intensity of off-tastes (bitter taste, harsh taste, astringent taste) derived from sodium acetate [5] | intensity of off-tastes (bitter taste, harsh taste, astringent taste) derived from disodium phosphate [6] | off-taste suppressing effect ([7]; addition concentration 100 ppb (12.5 weight ppm with respect to potassium chloride)) | off-taste suppressing effect [8, 9] | off-taste suppressing effect [8, 10] | off-taste suppressing effect [8, 11] | off-taste suppressing effect ([8]; addition concentration 200 weight ppb (20 weight ppm with respect to amino acid)) | intensity of off-tastes (bitter taste, harsh taste) derived from amino acid (branched chain amino acid) [8] | off-taste suppressing effect [7, 12] | off-taste suppressing effect [8, 13]
1 | CC(=O)c1ccc(C)o1 [2-acetyl-5-methylfuran] | suppressed | suppressed | suppressed | suppressed | suppressed | suppressed |  |  |  |  |  |  |  | 
2 | CC(=O)c1ccco1 [2-acetylfuran] | suppressed | suppressed | suppressed | suppressed | suppressed | suppressed | ++ (intensity of the same level as potassium chloride aqueous solution with potassium chloride concentration of not less than 0.7 wt % and less than 0.75 wt %) | − | −− (suppressed compared to negative control (same level of intensity as BCAA sweetness aqueous solution in which total concentration of leucine, isoleucine, and valine (weight ratio=2:1:1) exceeds 0.8 wt % and is not more than 0.9 wt %)) | −− (suppressed compared to negative control (same level of intensity as BCAA sweetness aqueous solution in which total concentration of leucine, isoleucine, and valine (weight ratio=2:1:1) exceeds 0.8 wt % and is not more than 0.9 wt %)) | −− (suppressed compared to negative control (same level of intensity as BCAA sweetness aqueous solution in which total concentration of leucine, isoleucine, and valine (weight ratio=2:1:1) exceeds 0.8 wt % and is not more than 0.9 wt %)) | suppressed |  | 
3 | CC1OCCC1=O (stereo not drawn) [2-methyltetrahydrofuran-3-one] | suppressed | suppressed | suppressed | suppressed | suppressed | suppressed |  |  |  |  |  |  |  | 
4 | CC1=C(O)C(=O)CC1 [cyclotene] | suppressed | suppressed | suppressed | suppressed | suppressed | suppressed |  | −− (suppressed compared to negative control (same level of intensity as BCAA sweetness aqueous solution in which total concentration of leucine, isoleucine, and valine (weight ratio=2:1:1) exceeds 0.8 wt % and is not more than 0.9 wt %)) | −− (suppressed compared to negative control (same level of intensity as BCAA sweetness aqueous solution in which total concentration of leucine, isoleucine, and valine (weight ratio=2:1:1) exceeds 0.8 wt % and is not more than 0.9 wt %)) | −− (suppressed compared to negative control (same level of intensity as BCAA sweetness aqueous solution in which total concentration of leucine, isoleucine, and valine (weight ratio=2:1:1) exceeds 0.8 wt % and is not more than 0.9 wt %)) |  | suppressed | +++ (intensity of the same level as potassium chloride aqueous solution with potassium chloride concentration of not less than 0.65 wt % and less than 0.7 wt %) | −− (suppressed compared to negative control (same level of intensity as BCAA sweetness aqueous solution in which total concentration of leucine, isoleucine, and valine (weight ratio=2:1:1) exceeds 0.8 wt % and is not more than 0.9 wt %))
5 | O=Cc1ccco1 [furfural, Furfural] | suppressed | suppressed | suppressed | suppressed | suppressed | suppressed |  | −− (suppressed compared to negative control (same level of intensity as BCAA sweetness aqueous solution in which total concentration of leucine, isoleucine, and valine (weight ratio=2:1:1) exceeds 0.8 wt % and is not more than 0.9 wt %)) | −− (suppressed compared to negative control (same level of intensity as BCAA sweetness aqueous solution in which total concentration of leucine, isoleucine, and valine (weight ratio=2:1:1) exceeds 0.8 wt % and is not more than 0.9 wt %)) | −− (suppressed compared to negative control (same level of intensity as BCAA sweetness aqueous solution in which total concentration of leucine, isoleucine, and valine (weight ratio=2:1:1) exceeds 0.8 wt % and is not more than 0.9 wt %)) |  | suppressed | +++ (intensity of the same level as potassium chloride aqueous solution with potassium chloride concentration of not less than 0.65 wt % and less than 0.7 wt %) | −
